Experimental data reported in the supplement of paper PMC9663587.

Legend:
Luminespib/NVP-AUY922 = compound: CCNC(=O)c1noc(-c2cc(C(C)C)c(O)cc2O)c1-c1ccc(CN2CCOCC2)cc1 [Luminespib/NVP-AUY922]
[1] = compound: CCc1cnn2c(NCc3ccc[n+]([O-])c3)cc(N3CCCC[C@H]3CCO)nc12
ABT-737 = compound: CN(C)CC[C@H](CSc1ccccc1)Nc1ccc(S(=O)(=O)NC(=O)c2ccc(N3CCN(Cc4ccccc4-c4ccc(Cl)cc4)CC3)cc2)cc1[N+](=O)[O-] [ABT-737]
Alpelisib/BYL719 = compound: Cc1nc(NC(=O)N2CCC[C@H]2C(N)=O)sc1-c1ccnc(C(C)(C)C(F)(F)F)c1 [Alpelisib/BYL719]
[2] = compound: Cc1nn(C)c(COc2ccc(N3CCN(S(=O)(=O)N(C)C)CC3)cc2)c1-c1cccc2c(CCCOc3cccc4ccccc34)c(C(=O)O)n(CCN3CCOCC3)c12
Olaparib/AZD2281 = compound: O=C(c1cc(Cc2n[nH]c(=O)c3ccccc23)ccc1F)N1CCN(C(=O)C2CC2)CC1 [Olaparib/AZD2281]
Buparlisib/NVP-BKM120 = compound: Nc1cc(C(F)(F)F)c(-c2cc(N3CCOCC3)nc(N3CCOCC3)n2)cn1 [Buparlisib/NVP-BKM120]
Tivantinib/ARQ197 = compound: O=C1NC(=O)[C@@H](c2cn3c4c(cccc24)CCC3)[C@@H]1c1c[nH]c2ccccc12 [Tivantinib/ARQ197]
Torin2 = compound: C1=CC(=CC(=C1)N2C(=O)C=CC3=CN=C4C=CC(=CC4=C32)C5=CN=C(C=C5)N)C(F)(F)F [Torin2]
Paclitaxel = compound: CC(=O)O[C@H]1C(=O)[C@@]2(C)[C@H]([C@H](OC(=O)c3ccccc3)[C@]3(O)C[C@H](OC(=O)[C@H](O)[C@@H](NC(=O)c4ccccc4)c4ccccc4)C(C)=C1C3(C)C)[C@]1(OC(C)=O)CO[C@@H]1C[C@@H]2O [Paclitaxel]
Cabozantinib = compound: COc1cc2nccc(Oc3ccc(NC(=O)C4(C(=O)Nc5ccc(F)cc5)CC4)cc3)c2cc1OC [Cabozantinib]
AZD7762 = compound: NC(=O)Nc1cc(-c2cccc(F)c2)sc1C(=O)N[C@H]1CCCNC1 [AZD7762]
Saracatinib/AZD0530 = compound: CN1CCN(CCOc2cc(OC3CCOCC3)c3c(Nc4c(Cl)ccc5c4OCO5)ncnc3c2)CC1 [Saracatinib/AZD0530]
[3] = compound: CCN1CCN(Cc2ccc(Nc3ncc(F)c(-c4cc(F)c5nc(C)n(C(C)C)c5c4)n3)nc2)CC1
Cediranib/AZD2171 = compound: COc1cc2c(Oc3ccc4[nH]c(C)cc4c3F)ncnc2cc1OCCCN1CCCC1 [Cediranib/AZD2171]
Pictilisib/GDC0941 = compound: CS(=O)(=O)N1CCN(Cc2cc3nc(-c4cccc5[nH]ncc45)nc(N4CCOCC4)c3s2)CC1 [Pictilisib/GDC0941]
[4] = compound: CCC1=CN=CN=C1N2CCN(CC2)CC3=NC4=C(N3)C=C(C=C4)C(F)(F)F
TGX221 = compound: CC1=CN2C(=O)C=C(N=C2C(=C1)C(C)NC3=CC=CC=C3)N4CCOCC4 [TGX221]
Ipatasertib/GDC0068 = compound: CC(C)NC[C@@H](C(=O)N1CCN(c2ncnc3c2[C@H](C)C[C@H]3O)CC1)c1ccc(Cl)cc1 [Ipatasertib/GDC0068]
AZD1775 = compound: C=CCn1c(=O)c2cnc(Nc3ccc(N4CCN(C)CC4)cc3)nc2n1-c1cccc(C(C)(C)O)n1 [AZD1775]
R0-3306 = compound: C1=CC2=C(C=CC(=C2)C=C3C(=O)NC(=NCC4=CC=CS4)S3)N=C1 [R0-3306]
[5] = compound: CNc1nc(-c2ccc3c(N)n[nH]c3c2)cc(N2C[C@@H](C(=O)NC3CCCCC3)CC[C@H]2C)n1
[6] = compound: CCCCOc1c(C(=O)c2c(F)cc(C)cc2F)c[nH]c2nncc1-2
SHP099 = compound: CC1(CCN(CC1)C2=CN=C(C(=N2)N)C3=C(C(=CC=C3)Cl)Cl)N [SHP099]
THZ1 = compound: CN(C)C/C=C/C(=O)Nc1ccc(C(=O)Nc2cccc(Nc3ncc(Cl)c(-c4c[nH]c5ccccc45)n3)c2)cc1 [THZ1]
AZD5363 = compound: NC1(C(=O)N[C@@H](CCO)c2ccc(Cl)cc2)CCN(c2nc[nH]c3nccc2-3)CC1 [AZD5363]
senexin b = compound: CN1CCN(C(=O)c2ccc3cc(CCNc4ncnc5ccc(C#N)cc45)ccc3c2)CC1 [senexin b]
AZD6738 = compound: C[C@@H]1COCCN1c1cc(C2([S@](C)(=N)=O)CC2)nc(-c2cc[nH]c3nccc2-3)n1 [AZD6738]
LEE011/Ribociclib = compound: CN(C)C(=O)c1cc2cnc(Nc3ccc(N4CCNCC4)cn3)nc2n1C1CCCC1 [LEE011/Ribociclib]
Flavopiridol = compound: CN1CC[C@H](c2c(O)cc(O)c3c(=O)cc(-c4ccccc4Cl)oc23)[C@H](O)C1 [Flavopiridol]
[7] = compound: COc1ccc2c(c1)[C@]1(C[C@H]1c1ccc3c(/C=C/c4ccc(CN5C[C@@H](C)O[C@@H](C)C5)cc4)n[nH]c3c1)C(=O)N2
BVD523 = compound: CC(C)Nc1cc(-c2c[nH]c(C(=O)N[C@H](CO)c3cccc(Cl)c3)c2)c(Cl)cn1 [BVD523]
THZ-P1-2 = compound: CN(C)C/C=C/C(=O)NC1=CC=C(C=C1)C(=O)NC2=CC=CC(=C2)NC3=NC=NC(=C3)C4=CNC5=CC=CC=C54 [THZ-P1-2]
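Note: breast cancer and non-malignant breast epithelial cell lines, Deep Dye Drop or Dye Drop imaging, nine half-log doses, GR normalized to time-zero plates and DMSO-only controls.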

Cell Line | GR50, 72 h (Luminespib/NVP-AUY922) [µM] | GR50, 72 h [1] [µM] | GR50, 72 h (ABT-737) [µM] | GR50, 72 h (Alpelisib/BYL719) [µM] | GR50, 72 h [2] [µM] | GR50, 72 h (Olaparib/AZD2281) [µM] | GR50, 72 h (Buparlisib/NVP-BKM120) [µM] | GR50, 72 h (Tivantinib/ARQ197) [µM] | GR50, 72 h (Torin2) [µM] | GR50, 72 h (Paclitaxel) [µM] | GR50, 72 h (Cabozantinib) [µM] | GR50, 72 h (AZD7762) [µM] | GR50, 72 h (Saracatinib/AZD0530) [µM] | GR50, 72 h [3] [µM] | GR50, 72 h (Cediranib/AZD2171) [µM] | GR50, 72 h (Pictilisib/GDC0941) [µM] | GR50, 72 h [4] [µM] | GR50, 72 h (TGX221) [µM] | GR50, 72 h (Ipatasertib/GDC0068) [µM] | GR50, 72 h (AZD1775) [µM] | GR50, 72 h (R0-3306) [µM] | GR50, 72 h [5] [µM] | GR50, 72 h [6] [µM] | GR50, 72 h (SHP099) [µM] | GR50, 72 h (THZ1) [µM] | GR50, 72 h (AZD5363) [µM] | GR50, 72 h (senexin b) [µM] | GR50, 72 h (AZD6738) [µM] | GR50, 72 h (LEE011/Ribociclib) [µM] | GR50, 72 h (Flavopiridol) [µM] | GR50, 72 h [7] [µM] | GR50, 72 h (BVD523) [µM] | GR50, 72 h (THZ-P1-2) [µM]
HCC1500 | 0.00847 | 0.0138 | 0.00851 | > 10 | > 10 | 6.33 | 0.211 | 0.115 | 0.00186 | 0.00382 | 4.67 | 0.0356 | 0.259 | 0.479 | 3.86 | 2.26 | 1.66 | > 10 | > 10 |  |  |  |  |  |  |  |  |  |  |  |  |  | 
CAL851 | 0.00652 | 0.00469 | > 10 | 3.64 | > 10 | 5.05 | 0.343 | 0.198 | 0.00862 | 0.00273 | 5.34 | 0.0421 | 0.871 | 1.3 | 2.38 | 0.647 | > 10 | > 10 |  | 0.212 | 6.55 | > 10 | 0.00814 | > 10 | 0.0085 | > 10 | > 10 | 4.62 | > 10 | 0.17 | 0.00209 |  | 
PDX1328 | 0.00288 | 0.0148 | 1.56 | 1.57 | > 10 | > 10 | 0.528 | 0.239 | 0.00494 | 0.00287 | 6.29 | 0.0284 | 0.987 | 0.0288 | 4.04 | 0.878 | > 10 | > 10 | > 10 | 0.00554 |  | > 10 | > 10 | > 10 | 0.0106 | > 10 | > 10 |  | 0.349 | 0.181 | 0.00595 | > 10 | > 10
MDAMB361 | 0.00714 | 0.0118 | > 10 | 0.223 | > 10 | 4.83 | 0.218 | 0.342 | 0.00507 | 0.00311 | > 10 | 0.00768 | 0.426 | 0.00535 | 2.22 | 0.0792 | 7.23 | > 10 | 0.314 | 0.00493 | 5.8 | 0.0407 |  | > 10 | 0.00852 | 0.654 | 1.62 | 4.79 | < 0.001 | 0.0887 | 0.00573 | 0.476 | 
MDAMB330 | 0.00239 | 0.0203 | 2.07 | 1.2 | > 10 | 9.31 | 0.511 | 0.661 | 0.00492 | 0.00423 | > 10 | 0.0449 | 1.2 | 0.00409 | 4.86 | 0.293 | > 10 | > 10 | 0.38 | 0.0535 | 7.54 | 0.279 | 0.762 |  | 0.00836 | 0.198 |  | 8.42 | < 0.001 | 0.232 | 0.00542 | 7.45 | 
HCC1954 | 0.0103 | 0.0126 | 9.94 | 1.23 | > 10 | > 10 | 0.523 | 0.167 | 0.0097 | 0.0025 | > 10 | 0.127 | 2.12 | 0.302 | 4.08 | 0.944 | > 10 | > 10 | 1.43 | 1.58 | 6.63 | > 10 | < 0.001 | > 10 | 0.0995 | 3.06 |  | 5.43 | > 10 | 0.128 | 0.00444 | 2.94 | 5.9
MDAMB453 | 0.0033 | 0.0114 | 5.97 | 0.538 | > 10 | 1.67 | 0.694 | 0.201 | 0.0086 | 0.00247 | 9.71 | 0.0116 | 8.37 | 0.00577 | 2.79 | 0.455 | 4.29 | > 10 | 0.542 | 0.112 | 5.95 | 2.12 | 0.811 | > 10 | 0.0116 | 1.55 | 3.93 | 4.74 | 0.0388 | 0.134 | 0.00348 | 7.79 | 
HCC202 | 0.0114 | 0.0137 | > 10 | 0.465 | > 10 | > 10 | 0.431 | 0.816 | 0.0137 | 0.00379 | > 10 | 0.0585 | 0.475 | 2.43 | 7.85 | 0.208 | > 10 | > 10 | 3.36 | 0.051 | 5.71 | 0.842 | 0.0699 | > 10 | 0.0212 | > 10 | > 10 | 8.72 | > 10 | 0.14 |  | > 10 | 6.48
